Patent publication US12213969B2, “2-spiro-5- and 6-hydroxamic acid indanes as HDAC inhibitors” (Valo Health, Inc., priority 2016, dated 2025)

Biological target: T1, Full length human recombinant HDAC6 protein (Homo sapiens, UniProt Q9UBN7)
T1 construct: made in house
T1 sequence (Q9UBN7 1-1215): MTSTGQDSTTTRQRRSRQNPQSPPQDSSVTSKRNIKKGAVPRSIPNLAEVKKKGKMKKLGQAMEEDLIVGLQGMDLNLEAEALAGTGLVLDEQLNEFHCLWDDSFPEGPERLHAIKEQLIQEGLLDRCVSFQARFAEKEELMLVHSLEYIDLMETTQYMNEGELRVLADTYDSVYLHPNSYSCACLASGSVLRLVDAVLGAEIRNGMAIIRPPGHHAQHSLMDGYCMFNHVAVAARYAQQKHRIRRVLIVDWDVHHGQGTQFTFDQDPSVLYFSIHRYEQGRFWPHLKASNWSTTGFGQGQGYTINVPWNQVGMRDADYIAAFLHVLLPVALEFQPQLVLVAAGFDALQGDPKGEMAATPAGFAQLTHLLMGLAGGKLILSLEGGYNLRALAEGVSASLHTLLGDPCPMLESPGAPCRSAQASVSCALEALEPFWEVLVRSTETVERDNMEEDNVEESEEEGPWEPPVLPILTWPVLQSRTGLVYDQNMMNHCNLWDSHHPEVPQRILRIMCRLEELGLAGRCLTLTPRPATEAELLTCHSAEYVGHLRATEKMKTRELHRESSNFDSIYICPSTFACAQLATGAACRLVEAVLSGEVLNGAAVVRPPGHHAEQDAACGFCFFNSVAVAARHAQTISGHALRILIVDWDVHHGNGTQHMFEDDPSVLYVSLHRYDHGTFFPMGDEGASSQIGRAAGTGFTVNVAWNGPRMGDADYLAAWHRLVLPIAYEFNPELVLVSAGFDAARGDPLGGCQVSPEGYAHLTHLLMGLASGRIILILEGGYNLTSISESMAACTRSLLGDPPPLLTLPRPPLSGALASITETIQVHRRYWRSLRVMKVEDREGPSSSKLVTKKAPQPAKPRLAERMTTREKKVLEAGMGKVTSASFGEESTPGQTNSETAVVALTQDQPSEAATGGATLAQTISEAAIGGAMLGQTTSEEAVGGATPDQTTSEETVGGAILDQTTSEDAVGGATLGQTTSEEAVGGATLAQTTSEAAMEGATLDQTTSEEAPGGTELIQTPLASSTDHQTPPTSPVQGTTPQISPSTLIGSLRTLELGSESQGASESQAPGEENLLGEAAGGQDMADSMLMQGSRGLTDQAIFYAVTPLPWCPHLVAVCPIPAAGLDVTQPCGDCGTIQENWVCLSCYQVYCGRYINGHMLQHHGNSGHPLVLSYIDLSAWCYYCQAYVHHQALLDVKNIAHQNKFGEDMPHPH
Experiment: In vitro histone deacetylase assay: enzymatic HDAC6 electrophoretic mobility shift assay
Assay type: biochemical
Conditions: peptide substrate RHKK(Ac)-NH2 2 μM, enzyme 1 nM, 25° C., 12 concentrations; read-out: HDAC6 activity range (IC50)
Procedure: The enzymatic HDAC6 assay was performed using electrophoretic mobility shift assay. Full length human recombinant HDAC6 protein was expressed in baculoviral system and purified by affinity chromatography. The enzymatic reactions were assembled in 384 well plates in a total volume of 25 μL in a reaction buffer composing: 100 mM HEPES, pH 7.5, 25 mM KCl, 0.1% bovine serum albumin, 0.01% Triton X-100, 1% DMSO (from compounds) 2 μM of the fluorescently labeled peptide substrate and enzyme. The enzyme was added at a final concentration of 1 nM. The peptide substrate RHKK(Ac)-NH2 was used. The compounds were tested at 12 concentrations spaced by 3× dilution intervals. Negative control samples (0%-inhibition in the absence of inhibitor) and positive control samples (100%-inhibition) were assembled in replicates of four in each assay plate. The reactions were incubated at 25° C. and quenched by the addition of 45 μL of termination buffer (100 mM HEPES, pH 7.5, 0.01% Triton X-100, 0.05% SDS).
The terminated assay plates were analyzed on LabChip® 3000 microfluidic electrophoresis instrument (Perkin Elmer/Caliper Life Sciences). The fluorescence intensity of the electrophoretically separated de-acetylated product and substrate peptide was measured. Activity in each sample was determined as the product to sum ratio (PSR): P/(S+P), where P is the peak height of the product peptide and S is the peak height of the substrate peptide. Percent inhibition (Pinh) is determined using the following equation:
Pinh=(PSR0%−PSRinh)/(PSR0%−PSR100%)*100, where PSRinh is the product sum ratio in the presence of inhibitor, PSR0% is the average product sum ration in the absence of inhibitor and PSR100% is the average product sum ratio in 100%-inhibition control samples. The IC50 values of inhibitors were determined by fitting the %-inhibition curves with 4 parameter dose-response model using XLfit 4 software.
As set forth in Table-7, below, IC50 values are defined as follows: IC50≤0.01 μM (+++); IC50>0.01 μM and ≤0.05 μM (++); IC50>0.05 μM (+).

SMILES	IC50
CN1CC[C@]2(Cc3ccc(C(=O)NO)cc3C2)C1=O [Compound I-1, (R)—N-hydroxy-1′-methyl-2′-oxo-1,3-dihydrospiro[indene-2,3′-pyrrolidine]-5-carboxamide]	10 to 50 nM
CN1CC[C@@]2(Cc3ccc(C(=O)NO)cc3C2)C1=O [Compound I-2, (S)—N-hydroxy-1′-methyl-2′-oxo-1,3-dihydrospiro[indene-2,3′-pyrrolidine]-5-carboxamide]	10 to 50 nM
CC(C)N1CC[C@]2(Cc3ccc(C(=O)NO)cc3C2)C1=O [Compound I-3, (R)—N-hydroxy-1′-isopropyl-2′-oxo-1,3-dihydrospiro[indene-2,3′-pyrrolidine]-5-carboxamide]	10 to 50 nM
CC(C)N1CC[C@@]2(Cc3ccc(C(=O)NO)cc3C2)C1=O [Compound I-4, (S)—N-hydroxy-1′-isopropyl-2′-oxo-1,3-dihydrospiro[indene-2,3′-pyrrolidine]-5-carboxamide]	> 50 nM
CC(C)CN1CC[C@@]2(Cc3ccc(C(=O)NO)cc3C2)C1=O [Compound I-8, (S)—N-hydroxy-1′-isobutyl-2′-oxo-1,3-dihydrospiro[indene-2,3′-pyrrolidine]-5-carboxamide]	10 to 50 nM
Cc1ccccc1CN1CC[C@]2(Cc3ccc(C(=O)NO)cc3C2)C1=O [Compound I-9, (R)—N-hydroxy-1′-(2-methylbenzyl)-2′-oxo-1,3-dihydrospiro[indene-2,3′-pyrrolidine]-5-carboxamide]	10 to 50 nM
Cc1ccccc1CN1CC[C@@]2(Cc3ccc(C(=O)NO)cc3C2)C1=O [Compound I-10, (S)—N-hydroxy-1′-(2-methylbenzyl)-2′-oxo-1,3-dihydrospiro[indene-2,3′-pyrrolidine]-5-carboxamide]	10 to 50 nM
O=C(NO)c1ccc2c(c1)C[C@@]1(CCN(Cc3ccccc3)C1=O)C2 [Compound I-11, (R)-1′-benzyl-N-hydroxy-2′-oxo-1,3-dihydrospiro[indene-2,3′-pyrrolidine]-5-carboxamide]	≤ 10 nM
O=C(NO)c1ccc2c(c1)C[C@@]1(CCN(c3ccccc3)C1=O)C2 [Compound I-13, (R)—N-hydroxy-2′-oxo-1′-phenyl-1,3-dihydrospiro[indene-2,3′-pyrrolidine]-5-carboxamide]	10 to 50 nM
O=C(NO)c1ccc2c(c1)C[C@]1(CCN(c3ccccc3)C1=O)C2 [Compound I-14, (S)—N-hydroxy-2′-oxo-1′-phenyl-1,3-dihydrospiro[indene-2,3′-pyrrolidine]-5-carboxamide]	10 to 50 nM
O=C(NO)c1ccc2c(c1)C[C@@]1(CCN(c3ccc(F)cc3)C1=O)C2 [Compound I-15, (R)-1′-(4-fluorophenyl)-N-hydroxy-2′-oxo-1,3-dihydrospiro[indene-2,3′-pyrrolidine]-5-carboxamide]	10 to 50 nM
O=C(NO)c1ccc2c(c1)C[C@]1(CCN(c3ccc(F)cc3)C1=O)C2 [Compound I-16, (S)-1′-(4-fluorophenyl)-N-hydroxy-2′-oxo-1,3-dihydrospiro[indene-2,3′-pyrrolidine]-5-carboxamide]	10 to 50 nM
O=C(NO)c1ccc2c(c1)C[C@@]1(CCN(c3cccnc3)C1=O)C2 [Compound I-17, (R)—N-hydroxy-2′-oxo-1′-(pyridin-3-yl)-1,3-dihydrospiro[indene-2,3′-pyrrolidine]-5-carboxamide]	≤ 10 nM
O=C(NO)c1ccc2c(c1)C[C@]1(CCN(c3cccnc3)C1=O)C2 [Compound I-18, (S)—N-hydroxy-2′-oxo-1′-(pyridin-3-yl)-1,3-dihydrospiro[indene-2,3′-pyrrolidine]-5-carboxamide]	10 to 50 nM
O=C(NO)c1ccc2c(c1)C[C@@]1(CCN(c3ccccn3)C1=O)C2 [Compound I-19, (R)—N-hydroxy-2′-oxo-1′-(pyridin-2-yl)-1,3-dihydrospiro[indene-2,3′-pyrrolidine]-5-carboxamide]	10 to 50 nM
O=C(NO)c1ccc2c(c1)C[C@@]1(CCN(Cc3cccnc3)C1=O)C2 [Compound I-23, (R)—N-hydroxy-2′-oxo-1′-(pyridin-3-ylmethyl)-1,3-dihydrospiro[indene-2,3′-pyrrolidine]-5-carboxamide]	10 to 50 nM
CN1CC[C@]2(Cc3ccc(C(=O)NO)cc3C2)C1 [Compound I-24, (R)—N-hydroxy-1′-methyl-1,3-dihydrospiro[indene-2,3′-pyrrolidine]-5-carboxamide]	10 to 50 nM
O=C(NO)c1ccc2c(c1)C[C@@]1(CCN(Cc3ccccc3)C1)C2 [Compound I-26, (R)-1′-benzyl-N-hydroxy-1,3-dihydrospiro[indene-2,3′-pyrrolidine]-5-carboxamide]	10 to 50 nM

The remaining lines, values ahead:

IC50	SMILES
10 to 50 nM	CCN1CC[C@]2(Cc3ccc(C(=O)NO)cc3C2)C1=O [Compound I-5, (R)-1′-ethyl-N-hydroxy-2′-oxo-1,3-dihydrospiro[indene-2,3′-pyrrolidine]-5-carboxamide]
> 50 nM	CCN1CC[C@@]2(Cc3ccc(C(=O)NO)cc3C2)C1=O [Compound I-6, (S)-1′-ethyl-N-hydroxy-2′-oxo-1,3-dihydrospiro[indene-2,3′-pyrrolidine]-5-carboxamide]
10 to 50 nM	CC(C)CN1CC[C@]2(Cc3ccc(C(=O)NO)cc3C2)C1=O [Compound I-7, (R)—N-hydroxy-1′-isobutyl-2′-oxo-1,3-dihydrospiro[indene-2,3′-pyrrolidine]-5-carboxamide]
10 to 50 nM	O=C(NO)c1ccc2c(c1)C[C@]1(CCN(Cc3ccccc3)C1=O)C2 [Compound I-12, (S)-1′-benzyl-N-hydroxy-2′-oxo-1,3-dihydrospiro[indene-2,3′-pyrrolidine]-5-carboxamide]
10 to 50 nM	O=C(NO)c1ccc2c(c1)C[C@]1(CCN(c3ccccn3)C1=O)C2 [Compound I-20, (S)—N-hydroxy-2′-oxo-1′-(pyridin-2-yl)-1,3-dihydrospiro[indene-2,3′-pyrrolidine]-5-carboxamide]
10 to 50 nM	O=C(NO)c1ccc2c(c1)C[C@@]1(CCN(c3ccncc3)C1=O)C2 [Compound I-21, (R)—N-hydroxy-2′-oxo-1′-(pyridin-4-yl)-1,3-dihydrospiro[indene-2,3′-pyrrolidine]-5-carboxamide]
10 to 50 nM	O=C(NO)c1ccc2c(c1)C[C@]1(CCN(c3ccncc3)C1=O)C2 [Compound I-22, (S)—N-hydroxy-2′-oxo-1′-(pyridin-4-yl)-1,3-dihydrospiro[indene-2,3′-pyrrolidine]-5-carboxamide]
> 50 nM	CN1CC[C@@]2(Cc3ccc(C(=O)NO)cc3C2)C1 [Compound I-25, (S)—N-hydroxy-1′-methyl-1,3-dihydrospiro[indene-2,3′-pyrrolidine]-5-carboxamide]
10 to 50 nM	O=C(NO)c1ccc2c(c1)C[C@]1(CCN(Cc3ccccc3)C1)C2 [Compound I-27, (S)-1′-benzyl-N-hydroxy-1,3-dihydrospiro[indene-2,3′-pyrrolidine]-5-carboxamide]
